Data on ten compounds can be found in patent US20070088050A1, “Crystals of laquinimod sodium, and process for the manufacture thereof” (priority 2005, published 2007).

Data set [1] can be described thus: Insoluble matter test: sample mixed in deionized water at ambient temperature. The format is physicochemical. The following applies: 55 mg sample in 0.5 mL deionized water. The procedure: (§1) The subject invention also provides a process for making a pharmaceutical composition comprising laquinimod sodium comprising: • a) obtaining a batch of laquinimod sodium; • b) determining whether insoluble matter is present in the batch of step a) by mixing a sample from the batch in deionized water at room temperature at a ratio of at least 110 mg of sample to 1.0 ml of water, and inspecting the resulting mixture for the presence of insoluble matter; and • c) mixing the batch of step a) with at least one pharmaceutically acceptable carrier if in step b) insoluble matter is determined to be present below a predetermined amount.
as §1, with “A” for “The subject invention also provides a”, “amount. […]” for “amount.”

Data set [2] can be described thus: Particle size distribution by Malvern laser diffraction (Mastersizer S). The format is physicochemical. Conditions: for Particle size distribution by Malvern, d(0.1): size below which 10% by volume of the population is found; for Particle size distribution by Malvern, d(0.5): size below which 50% by volume of the population is found; for Particle size distribution by Malvern, d(0.9): size below which 90% by volume of the population is found. The procedure: The particle size distributions were measured by Malvern Laser Diffraction, using the Mastersizer S model. Laser diffraction relies on the fact that diffraction angle of light is inversely proportional to particle size. Properties of particles are measured and interpreted as measurements of a sphere (a sphere being the only shape that can be described by one unique number). In addition, laser diffraction calculates a particle size distribution based around volume terms, thus eliminating particle count from the determination of particle size. The Mastersizer S model measures particles using a single technique and a single range setting.
D(0.1) is the particle size, in microns, below which 10% by volume distribution of the population is found. D(0.5) is the particle size, in microns, below which 50% by volume distribution of the population is found. D(0.9) is the particle size, in microns, below which 90% by volume distribution of the population is found.

A short description of data set [3]: Determination of powder density (bulk density, tapped density). The following applies: for Powder density, TD (tapped density): 1250 taps; for Powder density, BD (bulk density): loose, uncompacted powder. Format: physicochemical. The procedure: As used herein, “bulk density” or “BD” refers to a density measurement of a loose, uncompacted substance, wherein the volume of the substance includes the air trapped between particles.
As used herein, “tapped density” or “TD” refers to a density measurement of a substance that has been tapped or vibrated, thus minimizing the volume of the substance by eliminating or minimizing the air trapped between particles.
Determination of Powder Density
• 1. Mix powder; • 2. Tare a 50 ml empty cylinder on a 0.01 g sensitivity balance; • 3. Transfer the powder, without compacting, to the cylinder being held at approximately a 45 degree angle to achieve an untapped apparent volume of 40 to 50 ml. • 4. Bring the cylinder containing the sample to a vertical position by a sharp move in order to level the volume for reading. • 5. Read the apparent volume (Va) to the nearest graduated unit; • 6. Weigh the cylinder with sample (the balance gives sample weight M); • 7. Calculate bulk density in g/ml according to the following equation: BD=M/Va; • 8. Perform steps 1-7 again and report the average data of duplicates. Tapped Density • 1. Put the same cylinder used to calculate Bulk Density in a Quantachrome Dual Autotap instrument; • 2. Perform 1250 taps; • 3. Read the tapped volume (Vf) to the nearest graduated unit; • 4. Calculate the tapped density in g/ml according to the following equation: TD=M/Vf; • 5. Perform steps 1-4 again and report the average data of duplicates. Determination of Particle Size

In data set [4] the test system is acute experimental autoimmune encephalomyelitis (aEAE) model. Conditions: U.S. Pat. No. 6,077,851; cited from earlier work.
Data set [5] can be described thus: Solubility of laquinimod sodium in anti-solvents at room temperature (USP XXV terms). The format is physicochemical. The following applies: room temperature (20-25° C.). The source says: The solubility terms are defined below, in accordance with the United States Pharmacopoeia XXV. [table]
Where [6] appears, read: listed as Laguinimod Sodium according to Example 1 (batch B).

Take `CCN(C(=O)c1c([O-])c2c(Cl)cccc2n(C)c1=O)c1ccccc1.[Na+]`: in data set [1], the “Dissolution in deionized water” value is listed as “did not completely dissolve”.
As for `CCN(C(=O)c1c([O-])c2c(Cl)cccc2n(C)c1=O)c1ccccc1.[Na+]` [Laquinimod Sodium prepared according to Example 1 (batch A)], in data set [2], the “Particle size distribution by Malvern, d(0.1)” value is given as 1.5 micron; the “Particle size distribution by Malvern, d(0.5)” value was 7.1 micron; the “Particle size distribution by Malvern, d(0.9)” value was found to be 23.2 micron. In data set [3], the “Powder density, TD (tapped density)” value was found to be 0.347 g/ml and the “Powder density, BD (bulk density)” value came to 0.166 g/ml.
`CCN(C(=O)c1c([O-])c2c(Cl)cccc2n(C)c1=O)c1ccccc1.[Na+]` [Laquinimod Sodium prepared according to Example 1 (batch B)]: in data set [2], the “Particle size distribution by Malvern, d(0.1)” value stood at 2.1 micron; the “Particle size distribution by Malvern, d(0.5)” value is 10.8 micron; the “Particle size distribution by Malvern, d(0.9)” value is 35.3 micron. In data set [2] (setting [6]), the “Particle size distribution by Malvern, d(0.1)” value stood at 2.1 micron; the “Particle size distribution by Malvern, d(0.5)” value turned out to be 10.8 micron; the “Particle size distribution by Malvern, d(0.9)” value is 35.3 micron. Further, in data set [3], the “Powder density, TD (tapped density)” value was 0.452 g/ml and the “Powder density, BD (bulk density)” value stood at 0.189 g/ml.
For `CCN(C(=O)c1c([O-])c2c(Cl)cccc2n(C)c1=O)c1ccccc1.[Na+]` [Laquinimod Sodium prepared according to Example 1 (batch C)], in data set [2], the “Particle size distribution by Malvern, d(0.1)” value is listed as 1.3 micron; the “Particle size distribution by Malvern, d(0.5)” value is 5.9 micron; the “Particle size distribution by Malvern, d(0.9)” value is listed as 19.4 micron. Also, in data set [3], the “Powder density, TD (tapped density)” value turned out to be 0.362 g/ml and the “Powder density, BD (bulk density)” value was 0.158 g/ml.
For `CCN(C(=O)c1c(O)c2c(Cl)cccc2n(C)c1=O)c1ccccc1` [Laquinimod, N-ethyl-N-phenyl-1,2,-dihydro-4-hydroxy-5-chloro-1-methyl-2-oxoquinoline-3-carboxamide], the “Efficacy in the aEAE model” value in data set [4] was “effective”.
For the compound `CCN(C(=O)c1c([O-])c2c(Cl)cccc2n(C)c1=O)c1ccccc1.[Na+]` [Re-acrystallized product], in data set [2], the “Particle size distribution by Malvern, d(0.1)” value is on record as 13.3 micron; the “Particle size distribution by Malvern, d(0.5)” value is 51.1 micron; the “Particle size distribution by Malvern, d(0.9)” value is 105.1 micron. Also, in data set [3], the “Powder density, TD (tapped density)” value stood at 0.758 g/ml and the “Powder density, BD (bulk density)” value stood at 0.498 g/ml.
The matching figures for `CCN(C(=O)c1c([O-])c2c(Cl)cccc2n(C)c1=O)c1ccccc1.[Na+]` [Recrystallized product (Example 14)]: 3.5 micron, 15.7 micron, 43.2 micron, 0.429 g/ml and 0.224 g/ml.
With `CCN(C(=O)c1c([O-])c2c(Cl)cccc2n(C)c1=O)c1ccccc1.[Na+]` [Recrystallized product (Example 15)], in data set [2], the “Particle size distribution by Malvern, d(0.1)” value was found to be 6.1 micron; the “Particle size distribution by Malvern, d(0.5)” value turned out to be 21.2 micron; the “Particle size distribution by Malvern, d(0.9)” value was 51.8 micron.
`CCN(C(=O)c1c([O-])c2c(Cl)cccc2n(C)c1=O)c1ccccc1.[Na+]` [Recrystallized product (Example 16)]: in data set [2], the “Particle size distribution by Malvern, d(0.1)” value is given as 15.7 micron; the “Particle size distribution by Malvern, d(0.5)” value turned out to be 65.5 micron; the “Particle size distribution by Malvern, d(0.9)” value came to 156.4 micron.
As for `CCN(C(=O)c1c(O)c2c(Cl)cccc2n(C)c1=O)c1ccccc1` [laquinimod sodium], in data set [5] (acetone), the Solubility in acetone entry is “practically insoluble”. The Solubility in ethanol result in data set [5] (ethanol) is “slightly soluble”. The Solubility in isopropanol result in data set [5] (isopropanol) is reported as “very slightly soluble”.
